Test results as given in PMC10254923 (2023).

Tests used:
[1] = tested on: poly dAdT—poly dAdT; p(dAdT)2 (DNA, polymer) AT; experiment: UV thermal denaturation at 260 nm; settings: Na+ (sodium cacodylate, I = 0.05 M); pH 7.0; r = [compound]/[polynucleotide] = 0.1; error ±0.5 °C; per base
[2] = tested on: poly rA—poly rU; prAprU (RNA, polymer) A/U; experiment: UV thermal denaturation at 260 nm; settings: Na+ (sodium cacodylate, I = 0.05 M); pH 7.0; r = [compound]/[polynucleotide] = 0.1; error ±0.5 °C; per base
[3] = tested on: poly dAdT—poly dAdT; p(dAdT)2 (DNA, polymer) AT; experiment: fluorimetric titration, Scatchard (McGhee-von Hippel) fit; settings: Na+ (sodium cacodylate, I = 0.05 M); pH 7.0, 25 °C; n fixed 0.2; polynucleotide concentration as phosphates; per base
[4] = tested on: poly dGdC—poly dGdC; p(dGdC)2 (DNA, polymer) GC; experiment: as above; settings: Na+ (sodium cacodylate, I = 0.05 M); pH 7.0, 25 °C; n fixed 0.2; polynucleotide concentration as phosphates; per base
[5] = tested on: poly rA—poly rU; prAprU (RNA, polymer) A/U; experiment: as above; settings: Na+ (sodium cacodylate, I = 0.05 M); pH 7.0, 25 °C; n fixed 0.2; polynucleotide concentration as phosphates; per base
[6] = tested on: poly dAdT—poly dAdT; p(dAdT)2 (DNA, polymer) AT; experiment: UV/vis titration, Scatchard (McGhee-von Hippel) fit; settings: Na+ (sodium cacodylate, I = 0.05 M); pH 7.0, 25 °C; n fixed 0.2; polynucleotide concentration as phosphates; per base
[7] = tested on: poly dGdC—poly dGdC; p(dGdC)2 (DNA, polymer) GC; experiment: as above; settings: Na+ (sodium cacodylate, I = 0.05 M); pH 7.0, 25 °C; n fixed 0.2; polynucleotide concentration as phosphates; per base
[8] = tested on: poly rA—poly rU; prAprU (RNA, polymer) A/U; experiment: as above; settings: Na+ (sodium cacodylate, I = 0.05 M); pH 7.0, 25 °C; n fixed 0.2; polynucleotide concentration as phosphates; per base

| ΔTm [1] | ΔTm [2] | logKs [3] | logKs [4] | logKs [5] | logKs [6] | logKs [7] | logKs [8] | SMILES |
| --- | --- | --- | --- | --- | --- | --- | --- | --- |
| 8.2 °C | 9.3 °C | 6.9 | 7.4 | 7.9 | – | – | – | Cc1cc(-c2ccc3c(c2)Cc2cc(-c4cc(C)c(B(c5c(C)cc([N+](C)(C)C)cc5C)c5c(C)cc([N+](C)(C)C)cc5C)c(C)c4)ccc2-3)cc(C)c1B(c1c(C)cc([N+](C)(C)C)cc1C)c1c(C)cc([N+](C)(C)C)cc1C |
| 6.7 °C | 12.1 °C | – | – | – | 6.1 | 6.0 | 7.5 | Cc1cc(-c2ccc(-c3ccc(-c4cc(C)c(B(c5c(C)cc([N+](C)(C)C)cc5C)c5c(C)cc([N+](C)(C)C)cc5C)c(C)c4)cc3)cc2)cc(C)c1B(c1c(C)cc([N+](C)(C)C)cc1C)c1c(C)cc([N+](C)(C)C)cc1C |
| 9.6 °C | 7.4 °C | 8.7 | 8.0 | 7.4 | – | – | – | Cc1cc(-c2cc3ccc4cc(-c5cc(C)c(B(c6c(C)cc([N+](C)(C)C)cc6C)c6c(C)cc([N+](C)(C)C)cc6C)c(C)c5)cc5ccc(c2)c3c45)cc(C)c1B(c1c(C)cc([N+](C)(C)C)cc1C)c1c(C)cc([N+](C)(C)C)cc1C |
